Where “and” joins values, the source holds several entries; their conditions need not be identical. Identical values can stand only once.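 Exposure lasted 48 hours, with cells grown in 96-well plates and compounds tested at five concentrations. GI50 = concentration required for 50% inhibition of growth. TGI: total growth inhibition.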
What was measured:
Assay in all cases: NCI tumour cell line growth inhibition, 48 h
[1] = test system: HCT-15 colon
[2] = test system: DU-145 prostate
[3] = test system: CAKI-1 renal
[4] = test system: 786-0 renal
[5] = test system: HCT-116 colon
[6] = test system: ACHN renal
[7] = test system: NCI-H522 lung
[8] = test system: NCI-H226 lung
[9] = test system: LOX IMVI melanoma
[10] = test system: HCC-2998 colon
[11] = test system: HOP-62 NSCLC
[12] = test system: NCI-H460 lung
[13] = test system: SK-MEL-5 melanoma
[14] = test system: SN12C renal
[15] = test system: HL-60(TB) leukemia
[16] = test system: UACC-257 melanoma
[17] = test system: IGROV1 ovarian
[18] = test system: HT29 colon
[19] = test system: K-562 leukemia
[20] = test system: M14 melanoma
[21] = test system: SF-539 CNS
[22] = test system: OVCAR-5 ovarian
[23] = test system: OVCAR-3 ovarian
[24] = test system: MDA-MB-231 breast
[25] = test system: A498 renal
[26] = test system: SF-295 CNS
[27] = test system: HOP-92 NSCLC
[28] = test system: SNB-75 CNS
[29] = test system: SW-620 colon
[30] = test system: NCI/ADR-RES ovarian
[31] = test system: SK-OV-3 ovarian
[32] = test system: MALME-3M melanoma
[33] = test system: NCI-H23 lung
[34] = test system: MCF7 breast
[35] = test system: BT-549 breast
[36] = test system: MDA-MB-435
[37] = test system: CCRF-CEM leukemia
[38] = test system: HS 578T breast
[39] = test system: UACC-62 melanoma
[40] = test system: KM12 colon
[41] = test system: U251 CNS
[42] = test system: MOLT-4 leukemia
[43] = test system: EKVX NSCLC
[44] = test system: OVCAR-4 ovarian
[45] = test system: PC-3 prostate
[46] = test system: SNB-19 CNS
[47] = test system: T-47D breast
[48] = test system: SK-MEL-28 melanoma
[49] = test system: TK-10 renal
[50] = test system: SK-MEL-2 melanoma
[51] = test system: RXF 393 renal
[52] = test system: SF-268 CNS
[53] = test system: RPMI-8226 leukemia
[54] = test system: COLO 205 colon
[55] = test system: UO-31 renal
[56] = test system: A549 NSCLC
[57] = test system: OVCAR-8 ovarian

Compound: CCN(CC)CCNc1ccc(C)c2sc3ccccc3c(=O)c12 (tested in a mixture with another compound)
- TGI [1]: 11.1 µM and 9.1 µM
- GI50 [2]: 2.58 µM and 3.08 µM
- TGI [2]: 9.14 µM and 8.92 µM
- GI50 [3]: 1.38 µM and 0.694 µM
- TGI [3]: 4.5 µM and 6.47 µM
- GI50 [4]: 1.79 µM
- TGI [4]: 4.83 µM and 11.4 µM
- GI50 [5]: 1.5 µM
- TGI [5]: 2.9 µM and 3.62 µM
- GI50 [6]: 2.34 µM and 2.2 µM
- TGI [6]: 5.47 µM and 5.97 µM
- GI50 [7]: 3.34 µM
- TGI [7]: 13.3 µM
- GI50 [8]: 1.62 µM and 2.27 µM
- TGI [8]: 3.25 µM and 5.09 µM
- GI50 [9]: 1.86 µM and 1.7 µM
- TGI [9]: 3.88 µM and 3.81 µM
- GI50 [10]: 1.55 µM and 1.94 µM
- TGI [10]: 3.03 µM and 4.51 µM
- GI50 [11]: 1.54 µM and 2.07 µM
- TGI [11]: 3.12 µM and 5.88 µM
- TGI [12]: 3.81 µM and 3.58 µM
- GI50 [13]: 1.54 µM and 1.69 µM
- TGI [13]: 2.98 µM and 3.09 µM
- GI50 [14]: 4.38 µM
- TGI [14]: 12.7 µM and 18 µM
- GI50 [15]: 2.41 µM
- TGI [15]: 3.72 µM and 7.76 µM
- GI50 [16]: 2.31 µM
- TGI [16]: 4.8 µM
- GI50 [17]: 1.54 µM and 2.75 µM
- TGI [17]: 3.1 µM and 9.38 µM
- TGI [18]: 3.79 µM
- TGI [19]: 3.92 µM and 4.27 µM
- TGI [20]: 3.05 µM and 3.14 µM
- GI50 [21]: 1.92 µM and 2.25 µM
- TGI [21]: 4.06 µM and 5.45 µM
- GI50 [22]: 1.8 µM and 2.35 µM
- TGI [22]: 3.98 µM and 5.87 µM
- GI50 [23]: 2.43 µM
- TGI [23]: 6.92 µM and 7.23 µM
- GI50 [24]: 1.72 µM and 1.83 µM
- TGI [24]: 3.56 µM and 3.98 µM
- GI50 [25]: 1.83 µM
- TGI [25]: 4.11 µM and 7.09 µM
- TGI [26]: 5.3 µM and 5.37 µM
- GI50 [27]: 1.34 µM and 1.76 µM
- TGI [27]: 6.77 µM and 8.86 µM
- TGI [28]: 4.6 µM and 6.21 µM
- TGI [29]: 3.46 µM and 3.72 µM
- GI50 [30]: 3.21 µM and 3.19 µM
- TGI [30]: 12.2 µM and 13.5 µM
- GI50 [31]: 2.11 µM and 2.91 µM
- TGI [31]: 5.63 µM and 9.21 µM
- GI50 [32]: 1.65 µM and 1.71 µM
- TGI [32]: 3.46 µM and 3.45 µM
- GI50 [33]: 2.32 µM
- TGI [33]: 6.01 µM and 11.4 µM
- GI50 [34]: 1.81 µM and 1.75 µM
- TGI [34]: 3.85 µM and 3.73 µM
- GI50 [35]: 6.4 µM
- TGI [35]: 16.3 µM and 21.4 µM
- TGI [36]: 4.13 µM and 4.21 µM
- GI50 [37]: 2.84 µM and 3.05 µM
- TGI [37]: 8.82 µM and 10.6 µM
- GI50 [38]: 1.91 µM and 1.78 µM
- TGI [38]: 4.75 µM and 5 µM
- GI50 [39]: 1.08 µM
- TGI [39]: 2.49 µM and 3.79 µM
- TGI [40]: 9.82 µM and 11.6 µM
- TGI [41]: 6.92 µM and 8.17 µM
- GI50 [42]: 2.55 µM and 2.57 µM
- TGI [42]: 6.33 µM and 6.48 µM
- GI50 [43]: 5.1 µM and 4.96 µM
- TGI [43]: 19.7 µM and 19.5 µM
- GI50 [44]: 3.91 µM
- TGI [44]: 13.6 µM and 17.3 µM
- GI50 [45]: 2.77 µM
- TGI [45]: 6.63 µM and 12.4 µM
- GI50 [46]: 3.95 µM
- TGI [46]: 11.4 µM and 15.7 µM
- GI50 [47]: 1.75 µM and 2.29 µM
- TGI [47]: 4.64 µM and 7.22 µM
- TGI [48]: 3.3 µM and 3.27 µM
- GI50 [49]: 2.73 µM
- TGI [49]: 5.64 µM and 12.2 µM
- TGI [50]: 8.28 µM
- TGI [51]: 5.16 µM
- GI50 [52]: 3.91 µM and 3.3 µM
- TGI [52]: 14.8 µM and 12.5 µM
- TGI [53]: 4.49 µM and 4.35 µM
- TGI [54]: 3 µM and 3.1 µM
- TGI [55]: 3.79 µM
- GI50 [56]: 1.63 µM
- TGI [56]: 3.24 µM and 8.53 µM
- GI50 [57]: 6.63 µM
- TGI [57]: 76.9 µM

Compound: CC1=NN(C2=NS(=O)(=O)c3ccccc3N2C)C(=O)C1
- TGI [1]: > 100 µM
- TGI [2]: > 100 µM
- TGI [3]: > 100 µM
- TGI [4]: > 100 µM
- TGI [5]: > 100 µM
- TGI [6]: > 100 µM
- TGI [7]: > 100 µM
- TGI [8]: > 100 µM
- TGI [9]: > 100 µM
- TGI [10]: > 100 µM
- TGI [11]: > 100 µM
- TGI [12]: > 100 µM
- TGI [13]: > 100 µM
- TGI [14]: > 100 µM
- TGI [15]: > 100 µM
- TGI [16]: > 100 µM
- TGI [17]: > 100 µM
- TGI [18]: > 100 µM
- TGI [19]: > 100 µM
- TGI [20]: > 100 µM
- TGI [21]: > 100 µM
- TGI [22]: > 100 µM
- TGI [23]: > 100 µM
- TGI [24]: > 100 µM
- TGI [25]: > 100 µM
- TGI [26]: > 100 µM
- TGI [27]: > 100 µM
- TGI [29]: > 100 µM
- TGI [30]: > 100 µM
- TGI [31]: > 100 µM
- TGI [33]: > 100 µM
- TGI [34]: > 100 µM
- TGI [35]: > 100 µM
- TGI [36]: > 100 µM
- TGI [37]: > 100 µM
- TGI [38]: > 100 µM
- TGI [39]: > 100 µM
- TGI [40]: > 100 µM
- TGI [41]: > 100 µM
- TGI [42]: > 100 µM
- TGI [43]: > 100 µM
- TGI [44]: > 100 µM
- TGI [45]: > 100 µM
- TGI [46]: > 100 µM
- TGI [47]: > 100 µM
- TGI [48]: > 100 µM
- TGI [49]: > 100 µM
- TGI [50]: > 100 µM
- TGI [51]: > 100 µM
- TGI [52]: > 100 µM
- TGI [54]: > 100 µM
- TGI [55]: > 100 µM
- TGI [56]: > 100 µM
- TGI [57]: > 100 µM

— PubChem BioAssay (NCI)
